Entries after “also recorded” stand apart in the source; their conditions may differ.
Columns and labels:
GLUT1 = target: T1, GLUT1 (Homo sapiens, UniProt P11166, N45T); assay: Microscale thermophoresis (MST) binding assay; conditions: for Figure 2c: MST binding curve, Mean: log[SA47]
T1 construct: made in house
T1 sequence (P11166 1-492 N45T): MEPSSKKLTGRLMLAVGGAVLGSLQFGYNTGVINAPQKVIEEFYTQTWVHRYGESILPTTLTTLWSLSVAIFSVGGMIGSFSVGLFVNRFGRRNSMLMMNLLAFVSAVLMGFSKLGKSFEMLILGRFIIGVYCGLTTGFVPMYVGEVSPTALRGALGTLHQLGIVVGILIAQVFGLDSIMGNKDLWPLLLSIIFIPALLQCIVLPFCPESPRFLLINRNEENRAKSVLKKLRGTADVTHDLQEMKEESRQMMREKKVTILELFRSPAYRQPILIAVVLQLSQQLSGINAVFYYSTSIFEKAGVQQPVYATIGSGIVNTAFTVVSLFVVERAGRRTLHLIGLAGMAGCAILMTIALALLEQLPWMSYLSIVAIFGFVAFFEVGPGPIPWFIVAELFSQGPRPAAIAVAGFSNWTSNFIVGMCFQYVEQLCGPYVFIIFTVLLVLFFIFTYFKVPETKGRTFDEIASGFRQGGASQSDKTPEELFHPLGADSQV
Procedure: (§1) All mutants were generated by standard PCR-based strategy.
(§2) Inhibitors with serial dilutions were mixed with indicated protein. […] MST analyses were conducted on a Monolith NT. […] The MST data was analyzed by Monolith NT.115.

GLUT3 S71A = target: T2, GLUT3 S71A (Homo sapiens, UniProt P11169, N43T/S71A); assay: biochemical; format: binding
T2 construct: His10 (N); made in house; host or cells: Sf9 insect cells (baculovirus)
T2 sequence (P11169 whole entry N43T/S71A): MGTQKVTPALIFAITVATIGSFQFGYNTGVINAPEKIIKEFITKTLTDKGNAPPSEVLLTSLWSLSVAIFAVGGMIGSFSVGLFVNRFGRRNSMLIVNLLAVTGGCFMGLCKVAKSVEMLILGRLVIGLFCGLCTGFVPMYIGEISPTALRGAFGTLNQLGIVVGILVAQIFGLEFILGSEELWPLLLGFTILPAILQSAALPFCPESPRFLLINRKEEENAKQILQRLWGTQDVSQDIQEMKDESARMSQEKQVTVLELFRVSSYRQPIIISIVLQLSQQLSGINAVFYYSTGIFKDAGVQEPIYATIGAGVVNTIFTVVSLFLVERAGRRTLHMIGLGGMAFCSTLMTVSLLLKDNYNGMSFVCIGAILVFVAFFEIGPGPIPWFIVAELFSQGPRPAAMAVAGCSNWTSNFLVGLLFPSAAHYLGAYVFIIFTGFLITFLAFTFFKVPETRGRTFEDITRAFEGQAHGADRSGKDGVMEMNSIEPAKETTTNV
Procedure: as §1, §2

[1] = target: T3, GLUT3exo (GLUT3 S64W and I305W) (Homo sapiens, UniProt P11169, I305W/N43T/S64W); assay: biochemical; format: binding; conditions: for Figure 2c: MST binding curve, Mean: GLUT3 dTrp mutant, log[SA47]
T3 construct: His10 (N); made in house; host or cells: Sf9 insect cells (baculovirus)
T3 sequence (P11169 whole entry N43T/S64W/I305W): as the sequence (P11169 whole entry N43T/S71A) above, with S64W, A71S, I305W counted along it
Procedure: Following the same principle for the engineering of XylE-WW, we introduced two Trp substitutions, S64W and I305W, on the extracellular segments of TM2 and TM8 of GLUT3, respectively. This variant will be referred to as GLUT3exo hereafter (Fig. 1a). The two bulky substituents were expected to trap GLUT3 in an outward-facing conformation.
as §1, §2

Water solubility = format: physicochemical; conditions: can only be applied up to 160 μM
GLUT3 N413A = target: T4, GLUT3 N413A (Homo sapiens, UniProt P11169, N413A/N43T); assay: MST binding assay, GLUT3 variant; conditions: read-out: Kd of SA47
T4 construct: His10 (N); made in house; host or cells: Sf9 insect cells (baculovirus)
T4 sequence (P11169 1-496 N43T/N413A): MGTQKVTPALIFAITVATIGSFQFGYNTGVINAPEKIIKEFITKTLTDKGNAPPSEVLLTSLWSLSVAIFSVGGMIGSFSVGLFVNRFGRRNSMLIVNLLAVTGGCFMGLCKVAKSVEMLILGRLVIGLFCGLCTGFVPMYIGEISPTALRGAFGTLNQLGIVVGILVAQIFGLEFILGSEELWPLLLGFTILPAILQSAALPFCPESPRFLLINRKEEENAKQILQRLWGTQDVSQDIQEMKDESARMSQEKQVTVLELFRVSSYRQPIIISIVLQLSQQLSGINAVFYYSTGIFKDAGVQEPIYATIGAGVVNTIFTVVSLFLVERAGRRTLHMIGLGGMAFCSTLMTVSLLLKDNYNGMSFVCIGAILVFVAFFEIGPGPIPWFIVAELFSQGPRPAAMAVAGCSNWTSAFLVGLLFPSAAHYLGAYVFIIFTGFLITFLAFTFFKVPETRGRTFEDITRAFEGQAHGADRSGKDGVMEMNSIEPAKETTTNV
Procedure: as §1, §2

COC(=O)CCNCc1ccccc1-n1ncc2c(N3CCN(c4cc(F)ccc4OC)CC3)ncnc21 [SA47]
Kd (GLUT1): 310 ± 58.2 nM | Figure 2c: MST binding curve, Mean (GLUT1; M -4.90309): 102.821 | Figure 2c: MST binding curve, Mean (GLUT1; M -5.20412): 94.0406 | Figure 2c: MST binding curve, Mean (GLUT1; M -5.50515): 85.0371 | Figure 2c: MST binding curve, Mean (GLUT1; M -5.80618): 78.9623 | Figure 2c: MST binding curve, Mean (GLUT1; M -6.10721): 63.517 | Figure 2c: MST binding curve, Mean (GLUT1; M -6.40824): 44.2639 | Figure 2c: MST binding curve, Mean (GLUT1; M -6.70927): 30.0958 | Figure 2c: MST binding curve, Mean (GLUT1; M -7.0103): 11.0052 | Figure 2c: MST binding curve, Mean (GLUT1; M -7.31133): 3.8567 | Figure 2c: MST binding curve, Mean (GLUT1; M -7.61236): 3.527 | Figure 2c: MST binding curve, Mean (GLUT1; M -7.91339): -1.6488 | Figure 2c: MST binding curve, Mean (GLUT1; M -8.21442): -3.8284 | Figure 2c: MST binding curve, Mean (GLUT1; M -8.51545): 7.0621 | Figure 2c: MST binding curve, Mean (GLUT1; M -8.81648): 2.3819 | Kd (GLUT3 S71A): 1600 ± 400 nM | Affinity of SA47 with GLUT3 S71A (GLUT3 S71A; S71A versus WT): decreased the affinity; also recorded: reduced affinity | Kd [1]: 314 ± 80.7 nM | Figure 2c: MST binding curve, Mean ([1]; M -4.60206): 107.845 | Figure 2c: MST binding curve, Mean ([1]; M -4.90309): 92.9206 | Figure 2c: MST binding curve, Mean ([1]; M -5.20412): 96.8426 | Figure 2c: MST binding curve, Mean ([1]; M -5.50515): 85.0858 | Figure 2c: MST binding curve, Mean ([1]; M -5.80618): 74.1558 | Figure 2c: MST binding curve, Mean ([1]; M -6.10721): 60.9811 | Figure 2c: MST binding curve, Mean ([1]; M -6.40824): 46.911 | Figure 2c: MST binding curve, Mean ([1]; M -6.70927): 34.266 | Figure 2c: MST binding curve, Mean ([1]; M -7.31133): -0.7525 | Figure 2c: MST binding curve, Mean ([1]; M -7.61236): 4.6276 | Figure 2c: MST binding curve, Mean ([1]; M -7.91339): 1.8858 | Figure 2c: MST binding curve, Mean ([1]; M -8.21442): 1.3955 | Figure 2c: MST binding curve, Mean ([1]; M -8.51545): 4.478 | Figure 2c: MST binding curve, Mean ([1]; M -8.81648): -6.1144 | Water solubility (Water solubility): limited | Kd (GLUT3 N413A): 810 ± 214 nM

From publication PMC9098912, “Molecular basis for inhibiting human glucose transporters by exofacial inhibitors” (Nature Communications, 2022)
